Columns and labels:
Assay type in all cases: cell-based, Erwinia chrysanthemi
ELIC R91A = biological target: T1, ELIC R91A (Dickeya chrysanthemi, UniProt P0C7B7, INS163G/R91A); experiment: Two-electrode voltage clamp, ELIC R91A in oocytes
T1 construct: expressed in transfected cells; host or cells: X. laevis oocytes
Procedure: (§1) Constructs containing the gene of either the WT or mutant channels preceded by the signal sequence of the chicken α7nAchR were cloned into the pTLN vector for expression in X. laevis oocytes. After linearization of the plasmid DNA by MluI, capped complementary RNA was transcribed with the mMessage mMachine kit (Ambion) and purified with the RNeasy kit (Qiagen). For expression, 1–50 ng of RNA was injected into defolliculated oocytes. Two-electrode voltage clamp measurements were performed 1 d after injection at 20°C (OC-725B, Warner Instrument Corp.). Currents were recorded in bath solutions containing 10 mM HEPES (pH 7), 130 mM NaCl, and the indicated concentrations of cysteamine and divalent cations. In case of solutions containing Zn^2+, cysteamine was replaced by propylamine. The membrane potential in all dose–response measurements was set to −40 mV. As ELIC is permeable to divalent cations, we tested if endogenous calcium-activated chloride channels affected our measurements. To chelate intracellular calcium ions, the oocytes were incubated for 15 to 30 min in bath solutions lacking divalent ions but containing 10 µM BAPTA-AM.

ELIC WT = biological target: T2, ELIC WT (Dickeya chrysanthemi, UniProt P0C7B7, INS163G); experiment: cell-based; settings: Ki app, Schild analysis
T2 construct: expressed in transfected cells; host or cells: X. laevis oocytes (cRNA injection, pTLN vector)
Procedure: as §1

ELIC D113A/D158A = biological target: T3, ELIC D113A/D158A (Dickeya chrysanthemi, UniProt P0C7B7, D113A/D158A/INS163G); experiment: cell-based
T3 construct: expressed in transfected cells; host or cells: X. laevis oocytes
Procedure: as §1

Question: `CC(=O)OCC[N+](C)(C)C` [ACh, acetylcholine] was tested. Which Ki (ELIC R91A) did it give?
Answer: 170 µM

Question: What about the Ki (ELIC WT; WT/1 mM Ca^2+) of the same compound?
Answer: 2.2 mM

Question: What about the Ki (ELIC WT; WT/.25 mM Ca^2+) of the same compound?
Answer: 1.2 mM

Question: And the Ki (ELIC WT; WT/.5 mM Ca^2+)?
Answer: 1.3 mM

Question: What about the Ki (ELIC WT; WT, agonist cysteamine) of the same compound?
Answer: 1.6 mM

Question: What about the Ki (ELIC D113A/D158A) of the same compound?
Answer: 2.1 mM

Source: publication PMC3502511, “Inhibition of the Prokaryotic Pentameric Ligand-Gated Ion Channel ELIC by Divalent Cations” (PLoS Biology, 2012)
